12 molecules from ChEMBL document CHEMBL5620423, “Highly-tumor-targeted PAD4 inhibitors with PBA modification inhibit tumors in vivo by specifically inhibiting the PAD4-H3cit-NETs pathway in neutrophils” (Eur J Med Chem, 2023) can be followed below.

Data set [1] deals with 4T1. The data set can be described thus: Cytotoxicity against mouse 4T1 cells assessed as reduction in cell viability measured after 48 hrs by MTT assay. The conditions noted are these: 4T1, 48 h.
The test system of data set [2] is Sarcoma-180. Put plainly: Antitumor activity against Sarcoma-180 mouse model assessed as tumor weight at 10 umol/kg (reference value: 1.65 +/-0.2 gms). The format is functional. The following applies: dose 10 µmol/kg.
Data set [3] has as its system Sarcoma-180. The data set can be described thus: Antitumor activity against Sarcoma-180 mouse model assessed as inhibition of tumor growth at 10 umol/kg. Format: functional.
The test system of data set [4] is Sarcoma-180. The data set can be described thus: Antitumor activity against Sarcoma-180 mouse model assessed as tumor weight at 2 umol/kg (reference value: 1.65 +/-0.2 gms). The following applies: dose 2 µmol/kg. Format: functional.
Data set [5] concerns Sarcoma-180. Put plainly: Antitumor activity against Sarcoma-180 mouse model assessed as inhibition of tumor growth at 2 umol/kg. Format: functional.
Data set [6] concerns the target Protein-arginine deiminase type-4 (Homo sapiens, UniProt Q9UM07). Put plainly: Inhibition of PAD4 (unknown origin) using BAEE as substrate by colorimetric analysis.
Data set [7] concerns the target Protein-arginine deiminase type-4 (Mus musculus) (UniProt Q9Z183). The data set can be described thus: Inhibition of PAD4 in mouse bone marrow neutrophils assessed as reduction in H3 cit expression by measuring red filamentous histone structure at 50 uM measured after 48 hrs by Hoechst33342 staining based confocal laser scanning microscopy. Format: cell-based. The conditions noted are these: Neutrophil.

Data set [8] deals with 4T1. The data set can be described thus: Antitumor activity against mouse 4T1 cells xenografted in BALB/c mouse assessed as reduction in tumor volume at 10 umol/kg, iv for 21 days. Format: functional, organism-based. The following applies: dose 10.0 µmol/kg, time 21.0 day.
Data set [9] deals with 4T1. Put plainly: Antitumor activity against mouse 4T1 cells xenografted in BALB/c mouse assessed as reduction in tumor weight at 10 umol/kg, iv for 21 days. Format: functional, organism-based. The conditions noted are these: dose 10.0 µmol/kg, time 21.0 day.
The nature of data set [10]: Toxicity in BALB/c mouse xenografted with mouse 4T1 cells assessed as decrease in body weight at 10 umol/kg, iv measured after 9 to 15 days. The format is organism-based. The conditions noted are these: in vivo, time 9-15 day, dose 10 µmol/kg.
Data set [11] relates to 4T1. The data set can be described thus: Anti-metastatic activity against mouse 4T1 cells xenografted in BALB/c mouse assessed as reduction in number of lung metastatic tumor nodules at 10 umol/kg, iv for 21 days. Format: functional, organism-based. The following applies: dose 10.0 µmol/kg, time 21.0 day.
The nature of data set [12]: Hepatotoxicity in BALB/c mouse xenografted with mouse 4T1 cells assessed as reduction in serum ALT level at 10 umol/kg, iv for 21 days. Format: toxicity, organism-based. The conditions noted are these: in vivo, 504 h, dose 10 µmol/kg, time 21 day.
The nature of data set [13]: Nephrotoxicity in BALB/c mouse xenografted with mouse 4T1 cells assessed as […] in serum creatinine level at 10 umol/kg, iv for 21 days. The format is toxicity, organism-based. The conditions noted are these: in vivo, 504 h, dose 10 µmol/kg, time 21 day.
Data set [14] in a line: Nephrotoxicity in BALB/c mouse xenografted with mouse 4T1 cells assessed as reduction in serum BUN level at 10 umol/kg, iv for 21 days. The format is toxicity, organism-based. The following applies: in vivo, 504 h, dose 10 µmol/kg, time 21 day.

The source made the active and inactive calls. The rule behind the calls is not given here.

Sequence of Protein-arginine deiminase type-4 (Mus musculus) (Q9Z183 whole entry): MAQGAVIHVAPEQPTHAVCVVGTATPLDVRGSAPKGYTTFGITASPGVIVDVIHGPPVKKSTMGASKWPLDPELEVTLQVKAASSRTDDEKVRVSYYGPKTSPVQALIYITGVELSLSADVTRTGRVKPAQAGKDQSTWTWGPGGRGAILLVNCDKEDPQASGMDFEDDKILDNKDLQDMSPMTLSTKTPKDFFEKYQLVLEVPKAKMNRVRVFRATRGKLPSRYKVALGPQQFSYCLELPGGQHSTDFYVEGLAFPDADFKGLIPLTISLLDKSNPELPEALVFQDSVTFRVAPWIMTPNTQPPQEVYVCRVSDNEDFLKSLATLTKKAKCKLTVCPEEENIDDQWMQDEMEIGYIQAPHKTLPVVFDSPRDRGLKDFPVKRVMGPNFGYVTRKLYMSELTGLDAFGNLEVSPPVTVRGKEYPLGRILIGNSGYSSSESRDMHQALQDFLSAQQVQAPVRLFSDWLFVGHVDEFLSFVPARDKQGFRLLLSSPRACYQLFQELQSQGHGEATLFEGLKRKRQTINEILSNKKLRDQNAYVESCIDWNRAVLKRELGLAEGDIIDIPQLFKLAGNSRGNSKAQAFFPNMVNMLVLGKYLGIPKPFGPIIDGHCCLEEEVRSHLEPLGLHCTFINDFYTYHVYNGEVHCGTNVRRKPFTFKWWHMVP
Sequence of Protein-arginine deiminase type-4 (Q9UM07 whole entry): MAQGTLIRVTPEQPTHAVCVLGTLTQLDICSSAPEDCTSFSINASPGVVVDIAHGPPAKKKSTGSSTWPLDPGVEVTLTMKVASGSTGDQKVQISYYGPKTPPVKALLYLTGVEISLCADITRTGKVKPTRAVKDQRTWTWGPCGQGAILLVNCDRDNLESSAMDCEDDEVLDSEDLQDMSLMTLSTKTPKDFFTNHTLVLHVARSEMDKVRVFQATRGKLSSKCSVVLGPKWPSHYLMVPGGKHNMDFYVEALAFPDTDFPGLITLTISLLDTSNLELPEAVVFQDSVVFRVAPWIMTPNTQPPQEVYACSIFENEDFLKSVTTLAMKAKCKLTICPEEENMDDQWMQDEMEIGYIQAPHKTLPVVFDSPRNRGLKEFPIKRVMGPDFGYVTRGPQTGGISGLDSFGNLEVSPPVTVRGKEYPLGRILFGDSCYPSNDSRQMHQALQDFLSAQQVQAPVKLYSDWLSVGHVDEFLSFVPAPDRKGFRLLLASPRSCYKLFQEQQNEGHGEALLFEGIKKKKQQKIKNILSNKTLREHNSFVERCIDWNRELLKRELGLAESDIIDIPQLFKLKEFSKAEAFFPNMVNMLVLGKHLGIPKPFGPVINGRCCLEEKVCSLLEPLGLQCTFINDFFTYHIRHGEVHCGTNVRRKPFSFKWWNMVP

Take `N=C(CCl)NCCC[C@H](NC(=O)c1cccc(B(O)O)c1F)C(=O)NCc1ccccc1`: the IC50 with 4T1 [1] was above 100 µM. Further, the Activity in the data set on Sarcoma-180 [2] came out at 0.93 g. The inhibition in vivo at 10 µmol/kg in the data set on Sarcoma-180 [3] stood at 43.7%.
The matching figures for `N=C(CCl)NCCC[C@H](NC(=O)c1cc([N+](=O)[O-])c2nonc2c1)C(=O)NCc1ccccc1B(O)O`: above 100 µM, 0.89 g and 45.7%.
For `COc1cccc2c1C(=O)c1c(O)c3c(c(O)c1C2=O)C[C@@](O)(C(=O)CO)C[C@@H]3O[C@H]1C[C@H](N)[C@H](O)[C@H](C)O1` [DOXORUBICIN], the IC50 in the data set on 4T1 [1] worked out at 1.63 µM. Also, the Activity in the data set with Sarcoma-180 [4] was 0.94 g. The inhibition in vivo at 2 µmol/kg with Sarcoma-180 [5] amounted to 42.7%.
As for `N=C(CCl)NCCC[C@H](NC(=O)c1ccccc1B(O)O)C(=O)NCc1ccccc1`, the IC50 with 4T1 [1] is above 100 µM. In addition, the Activity with Sarcoma-180 [2] worked out at 1 g. For the same molecule, the inhibition in vivo at 10 µmol/kg in the data set with Sarcoma-180 [3] was 39.2%.
The matching figures for `N=C(CCl)NCCC[C@H](NC(=O)c1cc(B(O)O)ccc1F)C(=O)NCc1ccccc1`: above 100 µM, 1.14 g and 30.8%.
Taken in the same sequence, the figures for `N=C(CCl)NCCC[C@H](NC(=O)c1ccc(B(O)O)cc1)C(=O)NCc1ccccc1` were above 100 µM, 0.98 g and 40.3%.
Taken in the same sequence, the figures for `N=C(CCl)NCCC[C@H](NC(=O)c1cc(F)cc(B(O)O)c1)C(=O)NCc1ccccc1` were above 100 µM, 1.01 g and 38.7%.
On to `N=C(CCl)NCCC[C@H](NC(=O)c1cccc(B(O)O)c1)C(=O)NCc1ccccc1`, for which, in the data set on 4T1 [1], the IC50 was above 100 µM. The Activity in the data set on Sarcoma-180 [2] is listed as 1.04 g. The inhibition in vivo at 10 µmol/kg with Sarcoma-180 [3] was 36.7%.
The matching figures for `N=C(CCl)NCCC[C@H](NC(=O)c1ccc(F)c(B(O)O)c1)C(=O)NCc1ccccc1`: above 100 µM, 1.03 g and 37.5%.
Taken in the same sequence, the figures for `N=C(CCl)NCCC[C@H](NC(=O)c1cc([N+](=O)[O-])c2nonc2c1)C(=O)NCc1ccc(B(O)O)cc1` were above 100 µM, 0.87 g and 47.4%.
Consider `N=C(CCl)NCCC[C@H](NC(=O)c1cc(B(O)O)cc([N+](=O)[O-])c1)C(=O)NCc1ccccc1`, for which the IC50 with 4T1 [1] is above 100 µM. In addition, the Activity with Sarcoma-180 [2] amounted to 1.19 g. The inhibition in vivo at 10 µmol/kg in the data set with Sarcoma-180 [3] worked out at 27.6%.
Regarding `CN(C)c1ccc2cc(C(=O)N[C@@H](CCCNC(=N)CCl)C(=O)NCc3ccccc3)ccc2c1`, the IC50 in data set [6] turned out to be 2.86 µM; in the data set with 4T1 [1], 11.9 µM. The Activity is 0.94 g in the data set on Sarcoma-180 [2]; “Toxic” in [10]; “Toxic” in data set [12]; “Toxic” in data set [13]; “Toxic” in data set [14]. Further, in the data set on Sarcoma-180 [3], the inhibition in vivo at 10 µmol/kg came out at 42.7%. Further, in data set [7], the inhibition entry was “Active”. The result in the data set on 4T1 [8], in the data set on 4T1 [9] and in the data set with 4T1 [11] was Active.
